Values quoted from earlier work in paper PMC8288134, “Synthesis, potential antitumor activity, cell cycle analysis, and multitarget mechanisms of novel hydrazones incorporating a 4-methylsulfonylbenzene scaffold: a molecular docking study” (Journal of Enzyme Inhibition and Medicinal Chemistry, 2021).

Experiments:
Set-up in all cases: method as in https://dtp.cancer.gov/dtpstandard/dwindex/index.jsp
Conditions in all cases: reference drugs, ref https://dtp.cancer.gov/dtpstandard/dwindex/index.jsp; cited from earlier work
UO-31 = test system: UO-31
HS 578 T = test system: HS 578 T
MALME-3M = test system: MALME-3M
SF-539 = test system: SF-539
MDA-MB-435 = test system: MDA-MB-435
SNB-19 = test system: SNB-19
NCI/ADR-RES = test system: NCI/ADR-RES
SW-620 = test system: SW-620
DU-145 = test system: DU-145
HCC-2998 = test system: HCC-2998
SNB-75 = test system: SNB-75
HCT-116 = test system: HCT-116
NCI-H226 = test system: NCI-H226
SF-268 = test system: SF-268
A549/ATCC = test system: A549/ATCC
SK-MEL-5 = test system: SK-MEL-5
NCI-H522 = test system: NCI-H522
T-47D = test system: T-47D

## CS(=O)(=O)c1ccc(C(=O)Nc2ccc(Cl)c(-c3ccccn3)c2)c(Cl)c1 [Vismodegib, vismodegib]
UO-31
  GI50: 31.6 µM
HS 578 T
  GI50: 79.4 µM
MALME-3M
  GI50: 39.8 µM
SF-539
  GI50: 50.1 µM
MDA-MB-435
  GI50: 31.6 µM
SNB-19
  GI50: 63.1 µM
NCI/ADR-RES
  GI50: 31.6 µM
SW-620
  GI50: 63.1 µM
DU-145
  GI50: 50.1 µM
HCC-2998
  GI50: 39.8 µM
SNB-75
  GI50: 25.1 µM
HCT-116
  GI50: 50.1 µM
NCI-H226
  GI50: 50.1 µM
SF-268
  GI50: 39.8 µM
A549/ATCC
  GI50: 39.8 µM
SK-MEL-5
  GI50: 25.1 µM
NCI-H522
  GI50: 25.1 µM
T-47D
  GI50: 31.6 µM
